In brackets after ≈: the same amount, converted by molar mass. Where two headings read alike, the source gives them in different places.
What was measured:
[1] = Solubility in microdilution broth assays; type: physicochemical
Method: FIG. 12: Low-solubility compounds in MIC assay. Representative image of MIC assay read by plate reader with growth indicated on a range from 0.04 to 0.1 OD, black to green coloration. Starting concentration 50 μg/mL for all drugs. (A) H99 cultured in wells, and (B) wells contain RPMI media and no fungal cells with green coloration indicative of false positive growth caused by drug insolubility.
To assess antifungal activity, the panel of compounds was tested for fungal growth inhibition using minimum inhibitory concentration (MIC) assays against C. neoformans and C. albicans and minimum effective concentration (MEC) assays against A. fumigatus. […] MEC values against A. fumigatus ranged from 0.6 to 2.5 μg/mL for 10 of the analogs tested. […] Overall, a majority of these analogs maintain relatively potent antifungal activity across species and represent an active library for further investigation.

[2] = test system: IL-2 expression in primary mouse CD4+ T cells (mammalian calcineurin); assay: In vitro immunosuppressive activity, IL-2 expression (Example 3); type: cell-based; conditions: 72 h
Method: Modifications at the C-22 position reduce inhibition of mammalian calcineurin signaling Mammalian calcineurin inhibition was then assessed and found to be reduced for these FK520 analogs. The inhibition of mammalian calcineurin was assessed by measuring the reduction of IL-2 expression from primary mouse CD4^+ T cells cultured in the presence of FK506, FK520, or an analog. Calcineurin activity is required for T cell activation and cytokine production, and IL-2 production serves as an effective measure of mammalian calcineurin activity. After culturing mouse CD4′ T cells for 72 h, IL-2 expression was analyzed by flow cytometry to evaluate the immunosuppressive activity of the analogs. […] However, compound concentrations that permit high IL-2 expression are less likely to result in cell death.
Spleen and lymph nodes from C57BL/6 mice were collected and homogenized through a 40-μm filter. Pan-CD4^+ T cells were enriched using the MagniSort Mouse CD4 T Cell Enrichment Kit (Invitrogen). Thereafter, CD4^+CD25^−CD62L^hiCD44^lo naïve CD4^+ T cells were FACS-sorted using a MoFlo Astrios cell sorter (Beckman Coulter). Naïve CD4^+ T cells were cultured in Iscove's Modified Dulbecco's Medium supplemented with 10% fetal bovine serum (FBS), penicillin (10 U/mL), streptomycin (10 μg/mL), glutamine (2 mM), gentamicin (50 μg/mL), and β-mercaptoethanol (55 μM). Cells were cultured for 72 h on anti-hamster IgG-coated plates with hamster anti-CD3s antibodies, hamster anti-CD28 antibodies, neutralizing anti-IL-4 antibodies, recombinant IL-12 (10 ng/mL), and recombinant IL-2 (50 U/mL). During this culture, cells were incubated with serially diluted drugs suspended in DMSO.

Cryptococcus neoformans = assay: MIC assay (Example 3); type: cell-based; conditions: Cryptococcus neoformans
Method: (§1) In vitro antifungal activity was assessed for all fungal strains in RPMI 1640 (Sigma-Aldrich R1383). MICs were measured using Clinical and Laboratory Standards Institute (CLSI) M38-A2 and M27-A3 standard in vitro antifungal susceptibility protocols. C. neoformans and A. fumigatus testing was performed at 37° C. MECs for A. fumigatus were recorded after 48 h of growth. C. albicans testing was performed at 30° C. with a uniform concentration of 2 μg/mL of fluconazole to sensitize the cells to calcineurin inhibition.
(§2) C. neoformans clinical isolate H99 and congenic-derived strain KN99α were used (see, Nielsen K, et al., 2003. Infect Immun 71:4831-4841). KN99α-derived frr1Δ deletion mutants with nourseothricin resistance markers as part of the Madhani deletion collection (NIH funding R01AI100272) were used. C. deneoformans strains used include JEC21 and derived C21F2 (CNB1-1) and C21F3 (frr1-3) strains (see, Odom A, et al., 1997. EMBO J 16:2576-2589; Moore T D, Edman J C. 1993. Mol Cell Biol 13:1962-1970; Fox D S, et al., 2001. Mol Microbiol 39:835-849). C. albicans strain SC5314 is the wild-type strain from which mutants YAG171 (rbp1/rbp1) and YAG237 (CNB1-1/CNB1) were derived (see, Cruz M C, et al., 2001. Antimicrob Agents Chemother 45:3162-3170). A. fumigatus strain akuB^Ku80 and a derived FKBP12 mutant fkbp12A were used during antifungal screening (see, Falloon K, et al., 2015. PLoS One 10:e0137869).

[3] = test system: C. neoformans growth versus IL-2 in murine T cells; assay: Therapeutic index score (immunosuppressive fold change to antifungal fold change relative to FK506); parameters: species or system Cryptococcus neoformans; mouse; conditions: Example 3; C. neoformans H99, FK506 = 1.0
Text: To assess the therapeutic potential for these compounds, it was important to develop an approach to score and rank them based on antifungal and immunosuppressive activities. The therapeutic index score (TIscore) is a ratio of the immunosuppressive fold change to the antifungal fold change, with all values relative to the baseline FK506 activity (FIG. 6B). A TIscore of >1.0 indicates an increase in fungal specificity because the fold change of the immunosuppressive reduction is greater than the antifungal activity reduction. As an example, JH-FK-05 is 20-fold reduced for antifungal activity but about 180-fold reduced for immunosuppression. Therefore, the TIscore of JH-FK-05 is 9.1 (TIscore=182/20). The top two analogs were JH-FK-02 (TIscore=9.7) and JH-FK-05 (TIscore=9.1). Due to the similar TIscore, JH-FK-05 was prioritized to advance to animal trials on the merit of more pronounced antifungal activity compared to JH-FK-02.
Based on the in vitro fungal and mammalian calcineurin inhibition data, the panel of FK520 analogs was assessed and ranked. Therapeutic index (TI) scores were used to quantify the effects of structural modification on the compounds (Table 8). Therapeutic index scores were calculated for each analog as the ratio of relative change in immunosuppressive and antifungal activities compared to FK506 as previously utilized (see, I-Toy M J, et at. 2022. mBio 13:e0104922). This ratio of therapeutic benefit and host toxicity, or fungal and mammalian calcineurin inhibition, allowed us to quantify and rank these analogs. […] This is the greatest TI found within the library and allowed us to identify JH-FK-08 as a lead candidate for an in vivo study. Tolerability of JH-FK-08 was assessed by monitoring animal responses to drug dosing across 14 days, including changes in weight, fur condition, and behavior. A maximum dose of 40 mg/kg was tested in once a day dosing, and due to solubility limitations, the tolerability of JH-FK-08 at 60 and 80 mg/kg total daily doses was assessed by dosing two equal doses per day (FIG. 14). […] It should be noted that analogs JH-FK-12 and JH-FK-23 are also promising candidates with respective Tis of 24.7 and 24.5.

Aspergillus fumigatus = assay: MEC assay (Example 3); conditions: strain akuB^Ku80
Candida albicans = assay: MIC assay (Example 3); type: cell-based; conditions: Candida albicans, SC5314; MIC80, 30° C. with 2 μg/mL fluconazole; read-out: MIC against Candida albicans (SC5314)
Method: as §1, §2

cryptococcosis = conditions: cited from earlier work
[4] = MIC90, 37° C., read-out: MIC against Cryptococcus neoformans (H99)

With `CC[C@@H]1/C=C(\C)C[C@H](C)C[C@H](OC)[C@H]2O[C@@](O)(C(=O)C(=O)N3CCCC[C@H]3C(=O)O[C@H](/C(C)=C/C3CC[C@@H](O)[C@H](OC)C3)[C@H](C)[C@@H](O)C/C1=N/NS(=O)(=O)c1ccc(C)cc1)[C@H](C)C[C@@H]2OC` (stereo partly shown) [JH-FK-13] the “solubility during microdilution broth assays” value [1] was “exhibited solubility issues”, the IC50 [2] was greater than 200 nM and the MIC (Cryptococcus neoformans; Table 8, read-out: H99 MIC90) was greater than 50 µg/mL.
In the case of `CC[C@@H]1/C=C(\C)C[C@H](C)C[C@H](OC)[C@H]2O[C@@](O)(C(=O)C(=O)N3CCCC[C@H]3C(=O)O[C@H](/C(C)=C/C3CC[C@@H](O)[C@H](OC)C3)[C@H](C)[C@@H](O)C/C1=N/NC(=O)c1ccc3ccccc3c1)[C@H](C)C[C@@H]2OC` (stereo partly shown) [JH-FK-15], the “solubility during microdilution broth assays” value [1] is reported as “exhibited solubility issues”, the Therapeutic index [3] is reported as 3.1 and the “MEC against Aspergillus fumigatus (akuB^Ku80)” value (Aspergillus fumigatus) is reported as 0.3 µg/mL. For the same compound, the IC50 [2] was 17.4 nM, the MIC (Candida albicans) was 0.4 µg/mL (≈ 0.417 µM) and the MIC (Cryptococcus neoformans; [4]) was 3.1 µg/mL (≈ 3.23 µM). The MIC (Cryptococcus neoformans; Table 8, read-out: H99 MIC90) was 3.1 µg/mL (≈ 3.23 µM).
For `C=CC[C@@H]1/C=C(\C)C[C@H](C)C[C@H](OC)[C@H]2O[C@@](O)(C(=O)C(=O)N3CCCC[C@H]3C(=O)O[C@H](/C(C)=C/[C@@H]3CC[C@@H](O)[C@H](OC)C3)[C@H](C)[C@@H](O)CC1=NNC(C)=O)[C@H](C)C[C@@H]2OC` [JH-FK-01], the “interaction with fluconazole in pulmonary cryptococcosis model” value (cryptococcosis; in vivo combination therapy with fluconazole) is listed as “benefits from this synergistic interaction” and the “fungal burden in animal model of cryptococcosis” value (cryptococcosis; in vivo) is listed as “significantly reduced fungal burden”.
For `CC[C@@H]1/C=C(\C)C[C@H](C)C[C@H](OC)[C@H]2O[C@@](O)(C(=O)C(=O)N3CCCC[C@H]3C(=O)O[C@H](/C(C)=C/C3CC[C@@H](O)[C@H](OC)C3)[C@H](C)[C@@H](O)C/C1=N/NC(=O)c1ccc(F)cc1)[C@H](C)C[C@@H]2OC` (stereo partly shown) [JH-FK-17], the “solubility during microdilution broth assays” value [1] was “exhibited solubility issues”, the Therapeutic index [3] was 13.1 and the “MEC against Aspergillus fumigatus (akuB^Ku80)” value (Aspergillus fumigatus) was 1.3 µg/mL. It also gave an IC50 [2] of 9.4 nM, an MIC (Candida albicans) of 0.4 µg/mL (≈ 0.431 µM) and an MIC (Cryptococcus neoformans; [4]) of 0.4 µg/mL (≈ 0.431 µM). It also gave an MIC (Cryptococcus neoformans; Table 8, read-out: H99 MIC90) of 0.4 µg/mL (≈ 0.431 µM).

From US20260315446A1, “ANTIFUNGAL COMPOUNDS AND USES THEREOF” (priority 2023, published 2026)
